Source: publication PMC2957182 (Molecular and cellular endocrinology, 2010)

Assays:
ovaries = settings: bovine insulin; ref Riehle and Brown, 1999; cited from earlier work
Akt = settings: HNMPA-(AM3) 500 μM, ILP3 10 pmol or ILP4 20 pmol, 2 h, immunoblot

bovine insulin: bovine insulin
Ecdysteroid production by ovaries (ovaries): stimulates ecdysteroid production

CC(=O)OCOC(c1ccc2ccccc2c1)P(=O)(OCOC(C)=O)OCOC(C)=O (centres unmarked) [HNMPA-(AM3)]
Akt phosphorylation in ovaries with ILPs plus HNMPA-(AM3) (Akt): no change in phosphorylation
